Experimental data: ChEMBL document CHEMBL5223091, “Targeting the Mitotic Kinesin KIF18A in Chromosomally Unstable Cancers: Hit Optimization Toward an In Vivo Chemical Probe” (J Med Chem, 2022)
In brackets after ≈: the same amount, converted by molar mass.

Experiments:
[1] = molecular target: T1, Kinesin-like protein KIF18A (Homo sapiens, UniProt Q8NI77); assay: Inhibition of recombinant His-tagged human KIF18A (1 to 467 residues) expressed in Trichoplusia ni insect cells assessed as inhibition of microtubule-stimulated ATPase activity preincubated for 30 mins followed by ATP addition and further incubated for 15 mins by ADP-Glo reagent based assay; parameters: species or system Insect cell
T1 sequence (Q8NI77 whole entry): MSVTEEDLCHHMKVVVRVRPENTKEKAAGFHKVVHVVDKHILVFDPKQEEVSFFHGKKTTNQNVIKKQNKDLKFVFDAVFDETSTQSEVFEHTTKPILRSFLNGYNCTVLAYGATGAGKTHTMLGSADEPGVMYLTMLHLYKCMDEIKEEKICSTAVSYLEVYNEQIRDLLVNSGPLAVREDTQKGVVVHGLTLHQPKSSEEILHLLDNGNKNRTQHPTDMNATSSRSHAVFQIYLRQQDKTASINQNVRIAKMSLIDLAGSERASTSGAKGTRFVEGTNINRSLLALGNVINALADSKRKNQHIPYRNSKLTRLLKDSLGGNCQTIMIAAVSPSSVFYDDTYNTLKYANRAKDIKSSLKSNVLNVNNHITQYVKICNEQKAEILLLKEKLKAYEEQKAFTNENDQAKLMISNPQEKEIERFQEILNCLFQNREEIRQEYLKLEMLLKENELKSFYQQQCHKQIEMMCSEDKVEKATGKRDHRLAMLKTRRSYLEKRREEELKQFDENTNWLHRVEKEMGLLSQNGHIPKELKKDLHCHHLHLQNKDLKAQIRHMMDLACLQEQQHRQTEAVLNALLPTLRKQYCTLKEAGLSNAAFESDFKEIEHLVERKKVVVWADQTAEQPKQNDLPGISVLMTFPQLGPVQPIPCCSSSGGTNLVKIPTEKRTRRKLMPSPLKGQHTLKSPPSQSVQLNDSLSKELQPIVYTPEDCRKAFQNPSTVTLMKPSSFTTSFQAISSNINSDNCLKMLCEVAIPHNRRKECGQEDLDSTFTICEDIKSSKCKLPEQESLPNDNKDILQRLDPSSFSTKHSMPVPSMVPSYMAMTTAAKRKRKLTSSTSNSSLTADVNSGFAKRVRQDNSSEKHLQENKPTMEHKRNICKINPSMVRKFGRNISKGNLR

[2] = system: OVCAR-3; assay: Induction of mitotic arrest in human OVCAR-3 cells assessed as p-histone H3 incubated for 24 hrs by mitotic - imaging assay; assay type: functional, cell-based; conditions: OVCAR-3, 24 h
[3] = Clearance in CD-1 mouse at 1 mg/kg, iv and 10 mg/kg, po; assay type: ADME, organism-based; conditions: in vivo
[4] = Half life in CD-1 mouse at 1 mg/kg, iv and 10 mg/kg, po; assay type: ADME, organism-based; conditions: in vivo
[5] = Oral bioavailability in CD-1 mouse at 10 mg/kg; assay type: ADME, organism-based; conditions: in vivo
[6] = Unbound fraction in plasma (unknown origin) by ultracentrifugation; assay type: ADME, cell-free
[7] = Plasma concentration in CD-1 mouse at 100 mg/kg, po measured after 24 hrs; assay type: ADME, organism-based
[8] = Drug uptake in CD-1 mouse xenografted with human OVCAR-3 cells measured in tumor at 100 mg/kg, po measured after 8 hrs; assay type: ADME, organism-based, Neoplasm; conditions: read-out: Drug uptake
[9] = system: OVCAR-3; assay: Antimitotic activity in human OVCAR-3 cells xenografted in CD-1 mouse assessed as time prolongation of mitotic arrest per day at 100 mg/kg, po; assay type: functional
[10] = Passive permeability across apical to basolateral side in dog MDCK-MDR1 cells at 5 uM; assay type: ADME, cell-based, Canis lupus familiaris; conditions: read-out: permeability
[11] = Kinetic solubility of compound at pH 2; assay type: physicochemical; conditions: buffer, read-out: Kinetic_solubility
[12] = Kinetic solubility of compound in FaSSIF; assay type: ADME; conditions: read-out: Kinetic_solubility
[13] = AUC (0 to 24 hrs) in CD-1 mouse xenografted with human OVCAR-3 cells at 100 mg/kg, po by LC-MS/MS analysis; assay type: ADME, organism-based; parameters: dose 100 mg/kg, route po; conditions: in vivo
[14] = Plasma concentration in CD-1 mouse xenografted with human OVCAR-3 cells at 100 mg/kg, po measured upto 24 hrs by LC-MS/MS analysis; assay type: ADME, organism-based
[15] = Unbound fraction in CD-1 mouse plasma xenografted with human OVCAR-3 cells at 100 mg/kg, po by LC-MS/MS analysis; assay type: ADME, organism-based
[16] = Cmax in CD-1 mouse xenografted with human OVCAR-3 cells at 100 mg/kg, ip by LC-MS/MS analysis; assay type: ADME, organism-based; parameters: dose 100 mg/kg, route ip; conditions: in vivo
[17] = AUC (0 to 24 hrs) in CD-1 mouse xenografted with human OVCAR-3 cells at 100 mg/kg, ip by LC-MS/MS analysis; assay type: ADME, organism-based; parameters: dose 100 mg/kg, route ip; conditions: in vivo
[18] = Unbound fraction in CD-1 mouse plasma xenografted with human OVCAR-3 cells at 100 mg/kg, ip by LC-MS/MS analysis; assay type: ADME, organism-based

Work on `CC(C)(C)NS(=O)(=O)c1cccc(NC(=O)c2ncc(NS(C)(=O)=O)nc2N2CCC3(CC2)CC3)n1` yielded an IC50 [1] of 96 nM, an EC50 [2] of 32 nM and a CL [3] of 23.3 mL/min/kg. The half-life [4] was 1.7 h, the bioavailability [5] was 35% and the fraction unbound [6] was 0.022. The concentration at 24 h [7] was 0.03 µM, the concentration at 8 h [8] was 17.5 µM and the Time [9] was “>=12 hr”. For the same molecule, the Papp A→B at 5 µM [10] was less than 0.3 ×10⁻⁶ cm/s, the solubility kinetic [11] was 500 µM (≈ 269 µg/mL) and the solubility kinetic [12] was 209 µM (≈ 112 µg/mL). It also gave an AUC(0-t) [13] of 25.7 µM·h, a concentration at 24 h [14] of 0.016 µM and a fraction unbound [15] of 0.022. The Cmax [16] was 22.6 µM, the AUC(0-t) [17] was 116 µM·h and the fraction unbound [18] was 0.022.
